From PubChem BioAssay AID248 (DTP/NCI, 2004)
Values joined by “and” are separate entries in the source; they are usually repeats but may differ in a detail not shown here. Equal entries are not always repeated. Inconclusive results and toxic doses are left out. Rule as the data show it: active = T/C of 150% or more; inactive = T/C below 125%.

System: L1210 leukemia ip in BDF1 mice, survival T/C
Experiment: NCI In Vivo Anticancer Drug Screen. Data for tumor model L1210 Leukemia (intraperitoneal) in B6D2F1 (BDF1) mice
Settings: endpoint: mean survival time, higher = longer survival
Summary of the method: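 Tumor was transplanted into mice, which were then dosed with test compound or vehicle alone. Survival was recorded for each group, and the treated figure was expressed relative to the control figure.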

[1] = dose: 100.0 mg/kg/injection, schedule: Q04DX003 (ip), vehicle: saline

Measured: T/C

CCC(COC(=O)c1ccccc1)NC1CCCC1 (configuration not stated)
inactive: dose: 75.0 mg/kg/injection, schedule: Q01DX001 (ip), vehicle: saline 102 % of control | dose: 150.0 mg/kg/injection, schedule: Q01DX001 (ip), vehicle: saline 103 % of control | dose: 300.0 mg/kg/injection, schedule: Q01DX001 (ip), vehicle: saline 111 % of control

CC(CO)(c1c[nH]c2ccccc12)c1c[nH]c2ccccc12
inactive: dose: 50.0 mg/kg/injection, schedule: Q01DX001 (ip), vehicle: carboxymethylcellulose (CMC) 102 % of control | dose: 100.0 mg/kg/injection, schedule: Q01DX001 (ip), vehicle: carboxymethylcellulose (CMC) 96 % of control | dose: 200.0 mg/kg/injection, schedule: Q01DX001 (ip), vehicle: carboxymethylcellulose (CMC) 96 % of control | dose: 400.0 mg/kg/injection, schedule: Q01DX001 (ip), vehicle: carboxymethylcellulose (CMC) 96 % of control

CCCCCCCCCCCCCCCCCC[N+](C)(C)C (tested in a mixture with another compound)
inactive: dose: 0.2 mg/kg/injection, schedule: Q01DX015 (ip), vehicle: saline 104 % of control | dose: 0.5 mg/kg/injection, schedule: Q01DX015 (ip), vehicle: saline 98 % of control | dose: 1.0 mg/kg/injection, schedule: Q01DX009 (ip), vehicle: saline 108 % of control | dose: 1.0 mg/kg/injection, schedule: Q01DX015 (ip), vehicle: saline 104 % of control | dose: 2.0 mg/kg/injection, schedule: Q01DX009 (ip), vehicle: saline 100 % of control | dose: 2.0 mg/kg/injection, schedule: Q01DX015 (ip), vehicle: carboxymethylcellulose (CMC) 96 % of control | dose: 2.0 mg/kg/injection, schedule: Q01DX015 (ip), vehicle: saline 94 % of control and 103 % of control | dose: 3.0 mg/kg/injection, schedule: Q04DX003 (ip), vehicle: saline sonified 93 % of control | dose: 4.0 mg/kg/injection, schedule: Q01DX009 (ip), vehicle: saline 108 % of control | dose: 4.0 mg/kg/injection, schedule: Q01DX015 (ip), vehicle: carboxymethylcellulose (CMC) 93 % of control | dose: 4.0 mg/kg/injection, schedule: Q01DX015 (ip), vehicle: saline 96 % of control | dose: 5.0 mg/kg/injection, schedule: Q01DX015 (ip), vehicle: saline 103 % of control | dose: 6.0 mg/kg/injection, schedule: Q04DX003 (ip), vehicle: saline sonified 103 % of control | dose: 8.0 mg/kg/injection, schedule: Q01DX009 (ip), vehicle: saline 97 % of control | dose: 8.0 mg/kg/injection, schedule: Q01DX015 (ip), vehicle: saline 94 % of control | dose: 10.0 mg/kg/injection, schedule: Q01DX015 (ip), vehicle: saline 91 % of control | dose: 12.5 mg/kg/injection, schedule: Q01DX009 (ip), vehicle: saline 101 % of control | dose: 16.0 mg/kg/injection, schedule: Q04DX003 (ip), vehicle: saline 105 % of control | dose: 25.0 mg/kg/injection, schedule: Q01DX001 (ip), vehicle: saline 117 % of control | dose: 25.0 mg/kg/injection, schedule: Q01DX009 (ip), vehicle: saline 95 % of control | dose: 25.0 mg/kg/injection, schedule: Q04DX003 (ip), vehicle: saline 96 % of control | dose: 50.0 mg/kg/injection, schedule: Q04DX003 (ip), vehicle: saline 87 % of control

N#CCCSCCC#N
inactive: dose: 7.5 mg/kg/injection, schedule: Q01DX009 (ip), vehicle: saline 101 % of control | dose: 100.0 mg/kg/injection, schedule: Q04DX003 (ip), vehicle: saline with Tween-80 105 % of control | [1] 115 % of control | dose: 150.0 mg/kg/injection, schedule: Q01DX009 (ip), vehicle: saline 93 % of control | dose: 200.0 mg/kg/injection, schedule: Q04DX003 (ip), vehicle: saline with Tween-80 100 % of control | dose: 200.0 mg/kg/injection, schedule: Q04DX003 (ip), vehicle: saline 101 % of control | dose: 300.0 mg/kg/injection, schedule: Q01DX009 (ip), vehicle: saline 98 % of control | dose: 400.0 mg/kg/injection, schedule: Q04DX003 (ip), vehicle: saline with Tween-80 108 % of control | dose: 400.0 mg/kg/injection, schedule: Q04DX003 (ip), vehicle: saline 100 % of control

CONC(N)=O
inactive: dose: 100.0 mg/kg/injection, schedule: Q01DX Z (ip), vehicle: carboxymethylcellulose (CMC) 100 % of control | dose: 200.0 mg/kg/injection, schedule: Q01DX Z (ip), vehicle: carboxymethylcellulose (CMC) 98 % of control | dose: 350.0 mg/kg/injection, schedule: Q01DX Z (ip), vehicle: carboxymethylcellulose (CMC) 100 % of control and 101 % of control | dose: 500.0 mg/kg/injection, schedule: Q01DX Z (ip), vehicle: carboxymethylcellulose (CMC) 98 % of control | dose: 750.0 mg/kg/injection, schedule: Q01DX Z (ip), vehicle: carboxymethylcellulose (CMC) 98 % of control

O=C(c1ccc(Cl)cc1)c1nc2ccccc2[nH]1
inactive: dose: 100.0 mg/kg/injection, schedule: Q04DX002 (ip), vehicle: Klucel (hydroxypropylcellulose) (HPC) 95 % of control | dose: 200.0 mg/kg/injection, schedule: Q04DX002 (ip), vehicle: Klucel (hydroxypropylcellulose) (HPC) 95 % of control | dose: 400.0 mg/kg/injection, schedule: Q04DX002 (ip), vehicle: Klucel (hydroxypropylcellulose) (HPC) 103 % of control

COc1cc(C=Nc2cc(Cl)c(OC)c(Cl)c2)ccc1N(CCCl)CCCl
inactive: dose: 26.0 mg/kg/injection, schedule: Q01DX001 (ip), vehicle: carboxymethylcellulose (CMC) 121 % of control | dose: 26.0 mg/kg/injection, schedule: Q01DX009 (ip), vehicle: carboxymethylcellulose (CMC) 120 % of control | dose: 29.0 mg/kg/injection, schedule: Q01DX001 (ip), vehicle: carboxymethylcellulose (CMC) 118 % of control | dose: 40.0 mg/kg/injection, schedule: Q01DX009 (ip), vehicle: carboxymethylcellulose (CMC) 94 % of control | dose: 44.0 mg/kg/injection, schedule: Q01DX001 (ip), vehicle: carboxymethylcellulose (CMC) 114 % of control | dose: 150.0 mg/kg/injection, schedule: Q01DX001 (ip), vehicle: carboxymethylcellulose (CMC) 121 % of control | dose: 225.0 mg/kg/injection, schedule: Q01DX001 (ip), vehicle: carboxymethylcellulose (CMC) 122 % of control | dose: 300.0 mg/kg/injection, schedule: Q01DX001 (ip), vehicle: carboxymethylcellulose (CMC) 122 % of control

OC(C(c1ccccc1)N1CCCCC1)C(O)(c1ccccc1)c1ccccc1 (configuration not stated)
inactive: dose: 100.0 mg/kg/injection, schedule: Q01DX001 (ip), vehicle: saline sonified 97 % of control | dose: 200.0 mg/kg/injection, schedule: Q01DX001 (ip), vehicle: saline sonified 108 % of control | dose: 400.0 mg/kg/injection, schedule: Q01DX001 (ip), vehicle: saline sonified 93 % of control

CON(C)C(=O)CCN1CC1
inactive: dose: 10.0 mg/kg/injection, schedule: Q01DX009 (ip), vehicle: saline 97 % of control | dose: 20.0 mg/kg/injection, schedule: Q01DX009 (ip), vehicle: saline 94 % of control | dose: 20.0 mg/kg/injection, schedule: Q04DX003 (ip), vehicle: saline 100 % of control | dose: 40.0 mg/kg/injection, schedule: Q01DX009 (ip), vehicle: saline 97 % of control | dose: 40.0 mg/kg/injection, schedule: Q04DX003 (ip), vehicle: saline 100 % of control | dose: 80.0 mg/kg/injection, schedule: Q04DX003 (ip), vehicle: saline 104 % of control | [1] 94 % of control

c1ccc(-c2cc(-c3ccncc3)c(-c3ccccc3)nn2)cc1
inactive: dose: 100.0 mg/kg/injection, schedule: Q04DX003 (ip), vehicle: gum acacia 102 % of control | dose: 200.0 mg/kg/injection, schedule: Q04DX003 (ip), vehicle: gum acacia 96 % of control | dose: 400.0 mg/kg/injection, schedule: Q04DX003 (ip), vehicle: gum acacia 96 % of control

Oc1ccc([S+](c2ccc(O)cc2)c2ccc(O)cc2)cc1
inactive: dose: 5.0 mg/kg/injection, schedule: Q01DX001 (ip), vehicle: saline 96 % of control | dose: 10.0 mg/kg/injection, schedule: Q01DX001 (ip), vehicle: saline 96 % of control | dose: 20.0 mg/kg/injection, schedule: Q01DX001 (ip), vehicle: saline 107 % of control | dose: 40.0 mg/kg/injection, schedule: Q01DX001 (ip), vehicle: saline 105 % of control

Cc1ccc([N+](=O)[O-])c(C)c1
inactive: dose: 100.0 mg/kg/injection, schedule: Q01DX009 (ip), vehicle: Klucel (hydroxypropylcellulose) (HPC) 92 % of control | dose: 100.0 mg/kg/injection, schedule: Q04DX003 (ip), vehicle: Klucel (hydroxypropylcellulose) (HPC) 105 % of control | dose: 200.0 mg/kg/injection, schedule: Q01DX009 (ip), vehicle: Klucel (hydroxypropylcellulose) (HPC) 96 % of control | dose: 200.0 mg/kg/injection, schedule: Q04DX003 (ip), vehicle: Klucel (hydroxypropylcellulose) (HPC) 104 % of control | dose: 400.0 mg/kg/injection, schedule: Q01DX009 (ip), vehicle: Klucel (hydroxypropylcellulose) (HPC) 102 % of control | dose: 400.0 mg/kg/injection, schedule: Q04DX003 (ip), vehicle: Klucel (hydroxypropylcellulose) (HPC) 102 % of control
